From US20190365790A1, “Compounds, Compositions and Methods for Prevention or Treatment of Liver and Lipid-related Conditions” (SIVANARAY INC., priority 2017, published 2019)

System: HFD-fed, streptozotocin (STZ) injected rats with type 2 diabetes (T2DM)
Test: Study 3 (BVISIV): plasma biochemical parameters in HFD + STZ type 2 diabetes rats
Assay type: in vivo
Details: for relative effectiveness in lowering serum triglyceride, LDL and ALT levels: 200 mg/kg/day oral, comparison among BVISIV formulations

## O=C[C@H](O)[C@@H](O)[C@@H](O)[C@H](O)C(=O)O [BVISIV 4, Galacturonic Acid]
200 mg/kg/day, end of 6 weeks, vs Group 2
  lowering of glucose serum levels: most effective

## O=C[C@H](O)[C@@H](O)[C@@H](O)[C@H](O)CO [BVISIV 5, Galactose]
  relative effectiveness in lowering serum triglyceride, LDL and ALT levels: effective

## O=C[C@@H](O)[C@H](O)[C@H](O)CO [BVISIV 6, Arabinose]
  relative effectiveness in lowering serum triglyceride, LDL and ALT levels: did not perform as well as the other formulations
